From US20210030829A1, “METHODS FOR TREATMENT OF CANCER AND ENHANCEMENT OF NANOPARTICLE ACCUMULATION IN TISSUES” (University of Louisville Research Foundation, Inc., priority 2018, published 2021) come the findings set out here.

Details of the data set: species or system male C57BL/6 mice. As to conditions: mouse, in vivo.

Regarding `CCCCCCCCCCCCCCCCCCN1/C(=C/C=C/C=C/C=C/C2=[N+](CCCCCCCCCCCCCCCCCC)c3ccccc3C2(C)C)C(C)(C)c2ccccc21.[I-]` [free DiR, 1,1-dioctadecyl-3,3,3′,3′-tetramethylindotricarbocyanine-iodide], the Visible abnormality entry was “No visible abnormality”.
